From the supplement of paper PMC13207355
Structures can show the parent of a compound that is named as a salt.

What was measured:
Details in all cases: exposure time: 72 h
[1] = system: FT3469 (normal neural stem cell line); assay: surviving fraction (nuclei count normalised to DMSO); higher = more cells surviving (less toxic)
[2] = system: E13 (patient-derived glioblastoma stem cells of classical subtype); assay: as above
[3] = system: E57 (patient-derived glioblastoma stem cells of mesenchymal subtype); assay: as above
[4] = system: E28 (patient-derived glioblastoma stem cells of classical subtype); assay: as above
[5] = system: E34 (patient-derived glioblastoma stem cells of proneural subtype); assay: as above
[6] = system: E21 (patient-derived glioblastoma stem cells of mesenchymal subtype); assay: as above
[7] = system: E31 (patient-derived glioblastoma stem cells of proneural subtype); assay: as above
[8] = system: FT3469; assay: phenotypic distance (Euclidean, principal components) from DMSO controls (arbitrary units); higher = stronger morphological change
[9] = system: E13; assay: as above
[10] = system: E57; assay: as above
[11] = system: E28; assay: as above
[12] = system: E34; assay: as above
[13] = system: E21; assay: as above
[14] = system: E31; assay: as above
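Wherever phenotypic distance (Euclidean, principal components) from DMSO controls is given: cell Painting imaging in 384-well plates, CellProfiler features reduced to at least 20 principal components, Euclidean distance versus same-plate DMSO vehicle wells (0.1% v/v), median over six images per well.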
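Wherever surviving fraction (nuclei count normalised to DMSO) is given: nuclei counted by high-content imaging of Hoechst-stained cells in laminin-coated 384-well plates, relative to 0.1% DMSO vehicle wells, with staurosporine as cell-death control.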

CN(C)CCN(Cc1ccc(Cl)cc1)c1ccccn1 [Chloropyramine hydrochloride]
Details | phenotypic distance | surviving fraction
[1], 4.1 nM | – | 0.774
[1], 12.3 nM | – | 1.01
[1], 37 nM | – | 0.947
[1], 111.1 nM | – | 0.867
[1], 333.3 nM | – | 0.758
[1], 1000 nM | – | 0.878
[1], 3000 nM | – | 0.928
[2], 4.1 nM | – | 0.918
[2], 12.3 nM | – | 0.933
[2], 37 nM | – | 0.988
[2], 111.1 nM | – | 0.881
[2], 333.3 nM | – | 0.847
[2], 1000 nM | – | 0.953
[2], 3000 nM | – | 0.933
[3], 4.1 nM | – | 0.916
[3], 12.3 nM | – | 0.978
[3], 37 nM | – | 0.96
[3], 111.1 nM | – | 0.936
[3], 333.3 nM | – | 0.986
[3], 1000 nM | – | 1.02
[3], 3000 nM | – | 1.03
[4], 4.1 nM | – | 1.1
[4], 12.3 nM | – | 0.995
[4], 37 nM | – | 1.11
[4], 111.1 nM | – | 0.91
[4], 333.3 nM | – | 1.03
[4], 1000 nM | – | 1.19
[4], 3000 nM | – | 1.13
[5], 4.1 nM | – | 0.981
[5], 12.3 nM | – | 0.964
[5], 37 nM | – | 1.06
[5], 111.1 nM | – | 0.866
[5], 333.3 nM | – | 0.942
[5], 1000 nM | – | 1.14
[5], 3000 nM | – | 1
[6], 4.1 nM | – | 0.942
[6], 12.3 nM | – | 1.03
[6], 37 nM | – | 0.87
[6], 111.1 nM | – | 0.922
[6], 333.3 nM | – | 0.993
[6], 1000 nM | – | 1.12
[6], 3000 nM | – | 1.08
[7], 4.1 nM | – | 0.968
[7], 12.3 nM | – | 0.91
[7], 37 nM | – | 0.853
[7], 111.1 nM | – | 0.919
[7], 333.3 nM | – | 0.897
[7], 1000 nM | – | 0.946
[7], 3000 nM | – | 0.856
[8], 4.1 nM | 1.06 | –
[8], 12.3 nM | 0.715 | –
[8], 37 nM | 0.697 | –
[8], 111.1 nM | 0.656 | –
[8], 333.3 nM | 0.847 | –
[8], 1000 nM | 0.895 | –
[8], 3000 nM | 0.975 | –
[9], 4.1 nM | 0.601 | –
[9], 12.3 nM | 0.447 | –
[9], 37 nM | 0.683 | –
[9], 111.1 nM | 0.455 | –
[9], 333.3 nM | 0.745 | –
[9], 1000 nM | 1.13 | –
[9], 3000 nM | 0.879 | –
[10], 4.1 nM | 0.61 | –
[10], 12.3 nM | 0.445 | –
[10], 37 nM | 0.59 | –
[10], 111.1 nM | 0.607 | –
[10], 333.3 nM | 0.699 | –
[10], 1000 nM | 0.663 | –
[10], 3000 nM | 0.75 | –
[11], 4.1 nM | 1.02 | –
[11], 12.3 nM | 1.04 | –
[11], 37 nM | 0.979 | –
[11], 111.1 nM | 0.796 | –
[11], 333.3 nM | 1.02 | –
[11], 1000 nM | 0.889 | –
[11], 3000 nM | 0.936 | –
[12], 4.1 nM | 1.29 | –
[12], 12.3 nM | 1.02 | –
[12], 37 nM | 1.15 | –
[12], 111.1 nM | 2.53 | –
[12], 333.3 nM | 0.82 | –
[12], 1000 nM | 0.757 | –
[12], 3000 nM | 1.2 | –
[13], 4.1 nM | 0.655 | –
[13], 12.3 nM | 0.862 | –
[13], 37 nM | 0.953 | –
[13], 111.1 nM | 0.778 | –
[13], 333.3 nM | 0.678 | –
[13], 1000 nM | 1.38 | –
[13], 3000 nM | 1.62 | –
[14], 4.1 nM | 1.06 | –
[14], 12.3 nM | 0.615 | –
[14], 37 nM | 0.841 | –
[14], 111.1 nM | 0.689 | –
[14], 333.3 nM | 0.862 | –
[14], 1000 nM | 0.815 | –
[14], 3000 nM | 0.985 | –

COc1cc2c(c(OC)c1OC)-c1ccc(OC)c(=O)cc1[C@@H](NC(C)=O)CC2 [Colchicine]
Details | phenotypic distance | surviving fraction
[1], 4.1 nM | – | 0.487
[1], 12.3 nM | – | 0.468
[1], 37 nM | – | 0.367
[1], 111.1 nM | – | 0.301
[1], 333.3 nM | – | 0.263
[1], 1000 nM | – | 0.335
[1], 3000 nM | – | 0.229
[2], 4.1 nM | – | 0.247
[2], 12.3 nM | – | 0.187
[2], 37 nM | – | 0.165
[2], 111.1 nM | – | 0.14
[2], 333.3 nM | – | 0.151
[2], 1000 nM | – | 0.152
[2], 3000 nM | – | 0.178
[3], 4.1 nM | – | 0.21
[3], 12.3 nM | – | 0.0932
[3], 37 nM | – | 0.105
[3], 111.1 nM | – | 0.119
[3], 333.3 nM | – | 0.0902
[3], 1000 nM | – | 0.0976
[3], 3000 nM | – | 0.0829
[4], 4.1 nM | – | 0.546
[4], 12.3 nM | – | 0.244
[4], 37 nM | – | 0.335
[4], 111.1 nM | – | 0.295
[4], 333.3 nM | – | 0.291
[4], 1000 nM | – | 0.211
[4], 3000 nM | – | 0.207
[5], 4.1 nM | – | 0.406
[5], 12.3 nM | – | 0.368
[5], 37 nM | – | 0.389
[5], 111.1 nM | – | 0.284
[5], 333.3 nM | – | 0.318
[5], 1000 nM | – | 0.245
[5], 3000 nM | – | 0.267
[6], 4.1 nM | – | 0.171
[6], 12.3 nM | – | 0.125
[6], 37 nM | – | 0.133
[6], 111.1 nM | – | 0.137
[6], 333.3 nM | – | 0.136
[6], 1000 nM | – | 0.135
[6], 3000 nM | – | 0.139
[7], 4.1 nM | – | 0.131
[7], 12.3 nM | – | 0.0944
[7], 37 nM | – | 0.0551
[7], 111.1 nM | – | 0.0362
[7], 333.3 nM | – | 0.0614
[7], 1000 nM | – | 0.0519
[7], 3000 nM | – | 0.0425
[8], 4.1 nM | 3.51 | –
[8], 12.3 nM | 4.18 | –
[8], 37 nM | 5.37 | –
[8], 111.1 nM | 5.29 | –
[8], 333.3 nM | 4.34 | –
[8], 1000 nM | 5.12 | –
[8], 3000 nM | 4.51 | –
[9], 4.1 nM | 5.49 | –
[9], 12.3 nM | 5.12 | –
[9], 37 nM | 6.59 | –
[9], 111.1 nM | 7.17 | –
[9], 333.3 nM | 8.24 | –
[9], 1000 nM | 7.42 | –
[9], 3000 nM | 7.88 | –
[10], 4.1 nM | 4.26 | –
[10], 12.3 nM | 4.49 | –
[10], 37 nM | 4.46 | –
[10], 111.1 nM | 4.55 | –
[10], 333.3 nM | 4.46 | –
[10], 1000 nM | 4.61 | –
[10], 3000 nM | 5.19 | –
[11], 4.1 nM | 2.89 | –
[11], 12.3 nM | 3.81 | –
[11], 37 nM | 4.44 | –
[11], 111.1 nM | 4.55 | –
[11], 333.3 nM | 5.48 | –
[11], 1000 nM | 4.51 | –
[11], 3000 nM | 5.17 | –
[12], 4.1 nM | 3.32 | –
[12], 12.3 nM | 7.33 | –
[12], 37 nM | 9.15 | –
[12], 111.1 nM | 9.46 | –
[12], 333.3 nM | 7.78 | –
[12], 1000 nM | 7.61 | –
[12], 3000 nM | 10.5 | –
[13], 4.1 nM | 5.8 | –
[13], 12.3 nM | 5.88 | –
[13], 37 nM | 5.7 | –
[13], 111.1 nM | 5.45 | –
[13], 333.3 nM | 5.2 | –
[13], 1000 nM | 5.35 | –
[13], 3000 nM | 4.96 | –
[14], 4.1 nM | 4.44 | –
[14], 12.3 nM | 6.48 | –
[14], 37 nM | 9.95 | –
[14], 111.1 nM | 12.2 | –
[14], 333.3 nM | 11.7 | –
[14], 1000 nM | 10.4 | –
[14], 3000 nM | 12.5 | –
